According to ChEMBL document CHEMBL1938296, “Steroidal C-21 heteroaryl thioethers (Part 2): discovery of orally bioavailable selective glucocorticoid receptor modulators (dissociated steroids)” (Bioorg Med Chem Lett, 2012):
pEC50, pIC50: −log10 of the molar value. Calls of active or inactive are those of the source. No cut-off for these calls is given here.

Columns and labels:
Glucocorticoid receptor [1] = biological target: T1, Glucocorticoid receptor (Homo sapiens, UniProt P04150); test: Transrepression activity at glucocorticoid receptor in human H292 cells assessed as inhibition of TNF-stimulated IL-8 production; type: cell-based
T1 sequence (P04150 whole entry): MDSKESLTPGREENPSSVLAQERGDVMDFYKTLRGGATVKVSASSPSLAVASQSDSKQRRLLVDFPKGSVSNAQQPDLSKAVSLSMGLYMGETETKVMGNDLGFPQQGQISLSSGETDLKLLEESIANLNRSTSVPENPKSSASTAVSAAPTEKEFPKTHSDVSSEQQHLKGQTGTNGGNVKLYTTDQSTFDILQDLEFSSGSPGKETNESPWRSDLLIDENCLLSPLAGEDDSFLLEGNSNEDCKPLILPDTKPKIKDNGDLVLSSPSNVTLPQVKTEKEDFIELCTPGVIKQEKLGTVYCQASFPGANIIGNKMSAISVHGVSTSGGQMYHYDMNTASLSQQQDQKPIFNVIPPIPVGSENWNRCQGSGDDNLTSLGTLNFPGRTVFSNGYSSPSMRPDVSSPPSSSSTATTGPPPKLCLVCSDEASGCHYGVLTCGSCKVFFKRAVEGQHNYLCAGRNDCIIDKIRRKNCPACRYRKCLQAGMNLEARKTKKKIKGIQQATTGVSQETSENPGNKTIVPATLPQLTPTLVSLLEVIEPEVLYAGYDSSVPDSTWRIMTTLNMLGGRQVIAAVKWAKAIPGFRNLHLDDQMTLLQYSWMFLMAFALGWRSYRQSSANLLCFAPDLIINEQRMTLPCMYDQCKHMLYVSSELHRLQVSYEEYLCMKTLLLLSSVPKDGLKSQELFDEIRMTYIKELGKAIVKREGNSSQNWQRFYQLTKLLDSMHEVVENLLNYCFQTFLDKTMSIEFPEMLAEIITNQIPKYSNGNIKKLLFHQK

Glucocorticoid receptor [2] = biological target: T1, Glucocorticoid receptor; test: Transactivation of glucocorticoid receptor in human HepG2 cells assessed as induction of TAT measuring degradation of tyrosine to p-hydroxy phenyl pyruvate; type: cell-based; settings: read-out: IC50 (the source's name)
Glucocorticoid receptor [3] = biological target: T2, Glucocorticoid receptor (Rattus norvegicus, UniProt P06536); test: Transactivation of glucocorticoid receptor in rat H42E cells assessed as induction of TAT measuring degradation of tyrosine to p-hydroxy phenyl pyruvate; type: cell-based; settings: read-out: IC50 (the source's name)
T2 sequence (P06536 whole entry): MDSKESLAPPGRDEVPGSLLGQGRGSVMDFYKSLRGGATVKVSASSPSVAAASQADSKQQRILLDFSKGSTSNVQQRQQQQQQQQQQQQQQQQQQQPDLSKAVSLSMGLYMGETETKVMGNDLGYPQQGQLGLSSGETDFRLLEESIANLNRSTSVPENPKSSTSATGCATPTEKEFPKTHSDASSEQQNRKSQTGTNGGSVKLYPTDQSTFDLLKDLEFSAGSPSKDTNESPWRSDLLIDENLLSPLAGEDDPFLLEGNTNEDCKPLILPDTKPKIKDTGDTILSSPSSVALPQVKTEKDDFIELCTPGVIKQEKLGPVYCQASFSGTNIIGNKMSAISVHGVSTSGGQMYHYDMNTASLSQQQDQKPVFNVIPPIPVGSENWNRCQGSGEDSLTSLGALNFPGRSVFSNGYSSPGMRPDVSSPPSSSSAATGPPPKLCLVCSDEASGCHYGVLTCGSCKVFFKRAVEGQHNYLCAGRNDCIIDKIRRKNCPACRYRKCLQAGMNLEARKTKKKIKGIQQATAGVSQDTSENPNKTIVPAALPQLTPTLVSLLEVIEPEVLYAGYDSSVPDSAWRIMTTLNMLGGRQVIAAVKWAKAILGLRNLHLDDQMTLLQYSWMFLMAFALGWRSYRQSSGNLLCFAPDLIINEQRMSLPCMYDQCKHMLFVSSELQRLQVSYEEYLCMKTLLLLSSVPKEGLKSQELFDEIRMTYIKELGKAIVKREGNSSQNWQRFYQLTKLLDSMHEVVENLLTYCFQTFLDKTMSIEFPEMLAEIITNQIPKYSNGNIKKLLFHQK

Glucocorticoid receptor [4] = biological target: T1, Glucocorticoid receptor; test: Transactivation of glucocorticoid receptor in human HepG2 cells assessed as induction of TAT measuring degradation of tyrosine to p-hydroxy phenyl pyruvate at 1 uM relative to untreated control; type: cell-based; settings: hepg2, 1 µM
Glucocorticoid receptor [5] = biological target: T2, Glucocorticoid receptor; test: Transactivation of glucocorticoid receptor in rat H42E cells assessed as induction of TAT measuring degradation of tyrosine to p-hydroxy phenyl pyruvate at 1 uM relative to prednisolone; type: cell-based; settings: read-out: Efficacy
Rattus norvegicus [6] = test: Toxicity in Brown Norway rat allergic lung inflammation model assessed as decrease in thymus weight at 10 mg/kg, po for 3 days; type: organism-based; set-up: dose 10 mg/kg, route oral; scale not given: the % may be the effect or the level left; settings: in vivo, 72 h
[7] = AUC in Brown Norway rat at 10 mg/kg, po; type: ADME, organism-based; set-up: dose 10 mg/kg, route oral; settings: plasma
Rattus norvegicus [8] = test: Antiinflammatory activity against Brown Norway rat allergic lung inflammation model assessed as total cell inhibition at 10 mg/kg, po for 3 days; type: functional; set-up: scale not given: the % may be the effect or the level left
Rattus norvegicus [9] = test: Antiinflammatory activity in po dosed ovalbumin-induced allergic Brown Norway rat lung inflammation model assessed as inhibition of forced vital capacity administered 3 days before ovalbumin-challenge measured 24 hrs of post ovalbumin challenge; type: functional
Rattus norvegicus [10] = test: Antiinflammatory activity in ovalbumin-induced allergic Brown Norway rat lung inflammation model assessed as inhibition of forced vital capacity at 30 mg/kg, po qd administered 3 days before ovalbumin-challenge measured 24 hrs of post ovalbumin challenge; type: functional
Rattus norvegicus [11] = test: Antiinflammatory activity in ovalbumin-induced allergic Brown Norway rat lung inflammation model assessed as inhibition of forced vital capacity at 3 mg/kg, po qd administered 3 days before ovalbumin-challenge measured 24 hrs of post ovalbumin challenge; type: functional
Rattus norvegicus [12] = test: Antiinflammatory activity in ovalbumin-induced allergic Brown Norway rat lung inflammation model assessed as inhibition of forced vital capacity at 10 mg/kg, po qd administered 3 days before ovalbumin-challenge measured 24 hrs of post ovalbumin challenge; type: functional
Progesterone receptor = biological target: T3, Progesterone receptor (Homo sapiens, UniProt P06401); test: Inhibition of human progesterone receptor
T3 sequence (P06401 whole entry): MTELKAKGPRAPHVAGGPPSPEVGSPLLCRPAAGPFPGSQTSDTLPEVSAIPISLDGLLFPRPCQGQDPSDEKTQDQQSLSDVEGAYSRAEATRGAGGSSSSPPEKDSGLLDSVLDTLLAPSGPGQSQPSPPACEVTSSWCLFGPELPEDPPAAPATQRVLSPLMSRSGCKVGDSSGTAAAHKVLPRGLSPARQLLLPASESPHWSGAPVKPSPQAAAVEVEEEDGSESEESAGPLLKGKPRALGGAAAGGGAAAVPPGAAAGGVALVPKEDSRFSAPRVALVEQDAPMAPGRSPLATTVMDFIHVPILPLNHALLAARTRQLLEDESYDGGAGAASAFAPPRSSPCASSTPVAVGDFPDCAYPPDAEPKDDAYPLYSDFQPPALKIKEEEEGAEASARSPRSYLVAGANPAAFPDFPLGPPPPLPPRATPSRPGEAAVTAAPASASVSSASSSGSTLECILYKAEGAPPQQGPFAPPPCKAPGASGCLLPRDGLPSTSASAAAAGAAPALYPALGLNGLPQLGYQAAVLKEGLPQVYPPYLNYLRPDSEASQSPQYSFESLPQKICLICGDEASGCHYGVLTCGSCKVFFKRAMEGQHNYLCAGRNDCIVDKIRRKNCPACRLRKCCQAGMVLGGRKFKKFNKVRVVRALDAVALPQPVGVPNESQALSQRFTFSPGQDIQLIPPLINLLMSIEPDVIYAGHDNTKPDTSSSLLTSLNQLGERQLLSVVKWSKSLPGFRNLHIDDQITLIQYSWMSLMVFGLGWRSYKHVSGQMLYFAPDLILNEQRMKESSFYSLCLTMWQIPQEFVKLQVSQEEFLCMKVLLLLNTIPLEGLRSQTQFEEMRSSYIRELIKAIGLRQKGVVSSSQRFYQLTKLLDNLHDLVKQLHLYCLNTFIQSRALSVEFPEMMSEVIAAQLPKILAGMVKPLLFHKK

Rattus norvegicus [13] = test: Toxicity in Brown Norway rat allergic lung inflammation model assessed as decrease in thymus weight at 0.3 to 30 mg/kg, po for 10 days; type: organism-based; set-up: dose 0.3-30 mg/kg, route oral; settings: in vivo, 240 h
Rattus norvegicus [14] = test: Antiinflammatory activity against Brown Norway rat allergic lung inflammation model assessed as total cell inhibition at 0.3 to 30 mg/kg, po for 10 days relative to prednisolone; type: functional, organism-based
Glucocorticoid receptor [15] = biological target: T1, Glucocorticoid receptor; test: Inhibition of human glucocorticoid receptor
Rattus norvegicus [16] = test: Antiinflammatory activity in rat assessed as inhibition of LPS-induced TNF-alpha secretion up to 50 mg/kg, po; type: functional, organism-based; set-up: dose 50 mg/kg

| pIC50 (Glucocorticoid receptor [1]) | pEC50 (Glucocorticoid receptor [2]) | pEC50 (Glucocorticoid receptor [3]) | Efficacy (Glucocorticoid receptor [4]) | Emax at 1 µM (Glucocorticoid receptor [5]) | AUC [7] | pIC50 (Progesterone receptor) | pIC50 (Glucocorticoid receptor [15]) | SMILES | Activity (Rattus norvegicus [6]) | Activity (Rattus norvegicus [8]) | ED50 (Rattus norvegicus [9]) | inhibition in vivo at 30 mg/kg (Rattus norvegicus [10]) | inhibition in vivo at 3 mg/kg (Rattus norvegicus [11]) | inhibition in vivo at 10 mg/kg (Rattus norvegicus [12]) | Activity (Rattus norvegicus [13]) | Activity (Rattus norvegicus [14]) | inhibition (Rattus norvegicus [16]) |
| --- | --- | --- | --- | --- | --- | --- | --- | --- | --- | --- | --- | --- | --- | --- | --- | --- | --- |
| 8.29 | 7.10 | 6.13 | 57% | 65% |  |  |  | C[C@@H]1C[C@H]2[C@@H]3CCC4=CC(=O)C=C[C@]4(C)[C@H]3[C@@H](O)C[C@]2(C)[C@@]1(O)C(=O)CSc1nnc(-c2ccccc2)o1 |  |  |  |  |  |  |  |  |  |
| 8.15 | 6.14 | 7.62 | 27% | 13% | 11900 ng·h/mL |  |  | C[C@@H]1C[C@H]2[C@@H]3CCC4=CC(=O)C=C[C@]4(C)[C@H]3[C@@H](O)C[C@]2(C)[C@@]1(O)C(=O)CSc1nc2cccnc2s1 | 75% | 75% |  |  |  |  |  |  |  |
| 8.22 |  | 6.87 | 32% | 37% |  |  |  | C[C@@H]1C[C@H]2[C@@H]3CCC4=CC(=O)C=C[C@]4(C)[C@H]3[C@@H](O)C[C@]2(C)[C@@]1(O)C(=O)CSc1nc2ncccc2o1 |  |  |  |  |  |  |  |  |  |

The next lines start with the compound.

| SMILES | pIC50 (Glucocorticoid receptor [1]) | pEC50 (Glucocorticoid receptor [2]) | pEC50 (Glucocorticoid receptor [3]) | Efficacy (Glucocorticoid receptor [4]) | Emax at 1 µM (Glucocorticoid receptor [5]) | AUC [7] | pIC50 (Progesterone receptor) | pIC50 (Glucocorticoid receptor [15]) | Activity (Rattus norvegicus [6]) | Activity (Rattus norvegicus [8]) | ED50 (Rattus norvegicus [9]) | inhibition in vivo at 30 mg/kg (Rattus norvegicus [10]) | inhibition in vivo at 3 mg/kg (Rattus norvegicus [11]) | inhibition in vivo at 10 mg/kg (Rattus norvegicus [12]) | Activity (Rattus norvegicus [13]) | Activity (Rattus norvegicus [14]) | inhibition (Rattus norvegicus [16]) |
| --- | --- | --- | --- | --- | --- | --- | --- | --- | --- | --- | --- | --- | --- | --- | --- | --- | --- |
| C[C@]12C=CC(=O)C=C1CC[C@@H]1[C@@H]2[C@@H](O)C[C@@]2(C)[C@H]1CC[C@]2(O)C(=O)CSc1ccc2ccccc2n1 | 7.15 | 6.58 | 6.44 | 52% | 56% | 1200 ng·h/mL |  |  | 0% | 21% |  |  |  |  |  |  |  |
| C[C@]12C=CC(=O)C=C1CC[C@@H]1[C@@H]2[C@@H](O)C[C@@]2(C)[C@H]1CC[C@]2(O)C(=O)CO [PREDNISOLONE] |  |  |  | 81% | 100% | 1250 ng·h/mL |  |  | 53% | 56% | 5 mg/kg | 111% | 43% | 81% |  |  |  |
| C[C@@H]1C[C@H]2[C@@H]3CCC4=CC(=O)C=C[C@]4(C)[C@H]3[C@@H](O)C[C@]2(C)[C@@]1(O)C(=O)CO | 8.80 | 7.80 |  | 125% |  |  |  |  |  |  |  |  |  |  |  |  |  |
| C[C@]12C=CC(=O)C=C1CC[C@@H]1[C@@H]2[C@@H](O)C[C@@]2(C)[C@H]1CC[C@]2(O)C(=O)CSc1ccccn1 | 7.36 | 6.62 | 6.15 | 22% | 23% |  |  |  |  |  |  |  |  |  |  |  |  |
| Cn1c(SCC(=O)[C@@]2(O)CC[C@H]3[C@@H]4CCC5=CC(=O)C=C[C@]5(C)[C@H]4[C@@H](O)C[C@@]32C)nc2ccccc21 | 7.33 |  | 6.63 | 11% | 4% | 960 ng·h/mL | 5.86 | 8.14 | 4% | 58% | 10 mg/kg | 71% | 23% | 50% | Toxic | Active | Active |
| C[C@@H]1C[C@H]2[C@@H]3CCC4=CC(=O)C=C[C@]4(C)[C@H]3[C@@H](O)C[C@]2(C)[C@@]1(O)C(=O)CSc1nc2ccccc2s1 | 8.24 | 6.00 | 6.64 | 62% | 35% |  |  |  |  |  |  |  |  |  |  |  |  |
| C[C@@H]1C[C@H]2[C@@H]3CCC4=CC(=O)C=C[C@]4(C)[C@H]3[C@@H](O)C[C@]2(C)[C@@]1(O)C(=O)CSc1ccc2ccccc2n1 | 7.33 |  | 7.72 | 19% | 45% | 5280 ng·h/mL |  |  | 66% | 73% |  |  |  |  |  |  |  |
